Patent US5891882A, “Benzopyranopyrrole and benzopyranopyridine α-1 adenergic compounds” (priority 1997, dated 1999)
Where a name gives a salt, the structure may show the parent alone.

What was measured:
[1] = target: T1, α-1A adrenoreceptor (rat submaxillary gland) (Rattus norvegicus, UniProt P43140); assay: In vitro [3H]-prazosin radioligand binding, pharmacologically defined α-1A adrenoreceptor (rat submaxillary gland)
T1 construct: Rat submaxillary glands were used for α-1A adrenoreceptors; from tissue; host or cells: rat submaxillary gland membranes
T1 sequence (P43140 1-466): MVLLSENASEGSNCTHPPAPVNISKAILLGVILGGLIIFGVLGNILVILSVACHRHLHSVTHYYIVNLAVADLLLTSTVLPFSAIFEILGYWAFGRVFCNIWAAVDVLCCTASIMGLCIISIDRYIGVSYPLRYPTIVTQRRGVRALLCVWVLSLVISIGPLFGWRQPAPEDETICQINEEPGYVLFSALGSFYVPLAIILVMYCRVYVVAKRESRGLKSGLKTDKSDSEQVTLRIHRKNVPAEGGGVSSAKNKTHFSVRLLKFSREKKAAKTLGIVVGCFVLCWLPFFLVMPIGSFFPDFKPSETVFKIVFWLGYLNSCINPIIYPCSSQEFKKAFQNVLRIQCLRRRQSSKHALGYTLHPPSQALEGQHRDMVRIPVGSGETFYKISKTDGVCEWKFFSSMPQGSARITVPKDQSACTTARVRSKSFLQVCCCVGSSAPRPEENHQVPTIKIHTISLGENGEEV
Procedure: (§1) Additionally, binding affinity against the pharmacologically defined α-1A adrenoreceptor (rat submaxillary gland) was measured.
(§2) On the fifth day of culture, growth medium was removed from cells grown in roller bottles, and the cells were washed twice with PBS (Sigma, 120 mM NaCl, 2.7 mM KCl, 10 mM Na2 HPO4 --NaH2 PO4, pH=7.4). Cells were detached from the roller bottles by incubating for 15 minutes at 37° C. in a Tris-EDTA solution (10 mM Tris, 100 mM NaCl, 1 mM EDTA, pH=7.4). The cell suspension from each roller bottle was decanted into tared centrifuge tubes and kept on ice. An aliquot of each cell suspension was generally taken for cell counting. Cells were centrifuged at 3000×G for 5 min at 2°-4° C., washed with PBS and recentrifuged. The supernatant was decanted and the pellet weighed to determine the wet weight of cells. Cells were washed a final time in 40 vol 5 mM Tris-HCl, 5 mM EDTA, pH=7.7, and centrifuged at 40,000×G for 10 minutes. Cells were homogenized in 10 mL of 50 mM Tris-HCl, 5 mM EDTA (pH=7.4) and diluted to 40 mL/tube. Homogenates were centrifuged at 40,000×G for 10 minutes. The supernatant was decanted and the pellets rehomogenized in 50 mM Tris-HCl (pH=7.4) and centrifuged as before. The supernatant was decanted and the homogenate resuspended in 6.25 volumes (per gram wet weight) of 50 mM Tris-HCl and aliquots of the pooled homogenates frozen in liquid N2 and stored at -70° C. until the time of assay. Rat submaxillary glands were used for α-1A adrenoreceptors and were prepared essentially as described (Michel, A. D., Loury, D. N. and Whiting, R. L., Brit. J. Pharmacol. 98: 83-889 (1989)).
(§3) Receptor binding assays for α-1 adrenoreceptors were performed essentially as described by Greengrass and Bremner (Eur. J. Pharmacol. 55: 323-326 (1979)). […] Radioactivity was determined by standard liquid scintillation techniques. Data were analyzed as previously described (Hancock, A. A., Kyncl, J. J., Martin, Y. C. and DeBernardis, J. F., J Receptor Res. 8: 23-46 (1988)).

[2] = target: T2, α-1a adrenoreceptor (bovine) (Bos taurus, UniProt P18130); assay: In vitro [3H]-prazosin radioligand binding, cloned α-1a adrenoreceptor expressed in LTK cells
T2 construct: expressed in transfected cells; cDNA from TULCO; membranes
T2 sequence (P18130 1-466): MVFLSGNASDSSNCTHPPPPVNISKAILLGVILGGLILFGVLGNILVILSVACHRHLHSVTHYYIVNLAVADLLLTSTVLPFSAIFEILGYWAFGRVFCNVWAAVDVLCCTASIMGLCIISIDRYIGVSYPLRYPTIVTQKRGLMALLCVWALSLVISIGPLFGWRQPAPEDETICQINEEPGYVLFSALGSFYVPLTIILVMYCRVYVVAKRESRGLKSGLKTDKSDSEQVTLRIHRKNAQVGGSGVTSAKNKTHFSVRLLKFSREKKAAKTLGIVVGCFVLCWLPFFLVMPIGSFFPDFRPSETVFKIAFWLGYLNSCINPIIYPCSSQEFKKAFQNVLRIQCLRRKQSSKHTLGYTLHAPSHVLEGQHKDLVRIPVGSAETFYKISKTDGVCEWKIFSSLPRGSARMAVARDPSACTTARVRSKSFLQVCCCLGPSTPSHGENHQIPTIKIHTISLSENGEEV
Source text: (§4) The cDNA clones encoding the α-1 adrenoreceptors (α-1a, α-1b, and α-1d) were obtained from TULCO (Triangle Universities Licensing Consortium, Research Triangle Park, N.C.) and inserted into the eukaryotic expression vector SnaB30. In this vector, expression of the adrenoreceptor gene is under the transcriptional control of an SV40 early promoter. Positive drug selection is provided by a neomycin-resistance gene. Mouse fibroblast cells (LTK) were transfected with the α1 expression plasmids and grown in Dulbecco's modified Eagle's medium (DMEM) containing 10% fetal calf serum and […]. Stable G418-resistant parental lines were generated, with successful expression of adrenoreceptor protein monitored using radioligand binding techniques. Stable single cell clones derived from the parental lines were screened in adrenoreceptor binding assays to identify clones having high adrenoreceptor density. Roller bottle cultures of the cloned lines were used to provide cell membranes for subsequent adrenoreceptor binding characterization studies. A cell line containing the SnaB30 vector expressing the human erythropoietin gene served as a negative control.
(§5) For adrenoreceptor binding assays, large scale membrane preparations were utilized in which 6 million cells were seeded into small (450 cm^2) Corning tissue culture roller bottles. 200 mL of DMEM containing 10% fetal calf serum and 300 μM G418 were added to each roller bottle. A 95% air/5% CO2 gas mixture (sterile) was injected into each roller bottle prior to sealing. The bottles were then incubated at 37° C. on a roller rack for 5 days. Cells were re-fed with fresh medium after 3 days in culture.
as §2, §3

[3] = target: T3, α-1b adrenoreceptor (hamster) (Mesocricetus auratus, UniProt P18841); assay: In vitro [3H]-prazosin radioligand binding, cloned α-1b adrenoreceptor expressed in LTK cells
T3 construct: expressed in transfected cells; cDNA from TULCO; membranes
T3 sequence (P18841 1-515): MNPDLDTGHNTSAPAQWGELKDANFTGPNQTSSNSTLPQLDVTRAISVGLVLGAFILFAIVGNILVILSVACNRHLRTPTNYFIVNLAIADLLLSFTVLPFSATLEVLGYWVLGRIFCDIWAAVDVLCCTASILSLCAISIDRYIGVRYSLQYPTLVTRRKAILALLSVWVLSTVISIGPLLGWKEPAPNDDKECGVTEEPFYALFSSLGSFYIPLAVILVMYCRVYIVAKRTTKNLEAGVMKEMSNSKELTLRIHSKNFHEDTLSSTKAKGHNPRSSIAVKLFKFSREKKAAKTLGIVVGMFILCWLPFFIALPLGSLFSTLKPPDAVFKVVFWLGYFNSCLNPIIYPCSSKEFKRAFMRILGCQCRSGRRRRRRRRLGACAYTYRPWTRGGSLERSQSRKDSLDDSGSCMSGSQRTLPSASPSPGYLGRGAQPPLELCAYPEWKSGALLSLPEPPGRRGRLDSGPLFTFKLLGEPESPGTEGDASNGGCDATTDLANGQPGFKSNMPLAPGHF
Source text: as §4, §5, §2, §3

[4] = target: T4, α-1d adrenoreceptor (rat) (Rattus norvegicus, UniProt P23944); assay: In vitro [3H]-prazosin radioligand binding, cloned α-1d adrenoreceptor expressed in LTK cells
T4 construct: expressed in transfected cells; cDNA from TULCO; membranes
T4 sequence (P23944 1-561): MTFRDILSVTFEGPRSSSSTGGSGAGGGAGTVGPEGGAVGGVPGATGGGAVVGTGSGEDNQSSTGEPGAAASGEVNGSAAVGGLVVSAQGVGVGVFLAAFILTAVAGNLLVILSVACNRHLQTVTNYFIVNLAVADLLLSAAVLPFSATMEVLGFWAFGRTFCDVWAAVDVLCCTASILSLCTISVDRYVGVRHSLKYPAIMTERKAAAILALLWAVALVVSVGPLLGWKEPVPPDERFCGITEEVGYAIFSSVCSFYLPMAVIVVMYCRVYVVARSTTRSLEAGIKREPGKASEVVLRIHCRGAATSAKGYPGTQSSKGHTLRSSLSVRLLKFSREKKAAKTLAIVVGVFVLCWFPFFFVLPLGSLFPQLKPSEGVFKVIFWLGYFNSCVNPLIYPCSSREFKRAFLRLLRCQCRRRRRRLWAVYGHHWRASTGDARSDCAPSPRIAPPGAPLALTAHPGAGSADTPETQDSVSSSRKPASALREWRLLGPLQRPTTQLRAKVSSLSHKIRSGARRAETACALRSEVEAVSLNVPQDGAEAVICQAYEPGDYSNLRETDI
Procedure: as §1, §4, §5, §2, §3

[5] = target: T5, α-1 Adrenoceptors (Rat Aorta) (Rattus norvegicus, UniProt P23944); assay: Functional antagonism at α-1 adrenoceptors, rat aorta; assay type: cell-based; settings: for Kb: read-out: In Vitro Characterization (pA2) Rat Aorta (converted)
T5 construct: Rat Aorta; from tissue; host or cells: rat aorta
T5 sequence (P23944 1-561): T4 sequence (P23944 1-561)
Source text: (§6) Functional assays indicative of pharmacologically defined α-1 adrenoreceptors were used to further characterize compounds. Inhibition of phenylephrine (PE)-induced contraction of canine prostate smooth muscle can be correlated with α-1A adrenoreceptor activation. […] For each of these models, agonist dose response curves were repeated against increasing concentrations of test agent to derive a Schild plot [log ([…]) against log (molarity of test agent)] to determine the pA2.

[6] = target: T6, α-1A adrenoreceptor (rat vas deferens) (Rattus norvegicus, UniProt P43140); assay: Functional antagonism: inhibition of phenylephrine-induced contraction of rat vas deferens; assay type: cell-based; settings: rat vas deferens, phenylephrine-induced contraction, Schild plot
T6 construct: from tissue; host or cells: rat vas deferens
T6 sequence (P43140 1-466): T1 sequence (P43140 1-466)
Source text: as §6

[7] = system: α-1 adrenoreceptor; settings: cited from earlier work

SMILES	Ki [1]	Ki [2]	Ki [3]	Ki [4]	Kb [5]	In Vitro Characterization (pA2) Rat Vas [6]	In Vitro Characterization (pA2) Rat Aorta [5]	dose limiting side effects ([7]; BPH treatment)	urinary flow rates and subjective symptom scores ([7]; longer term studies, BPH)	clinical efficacy in BPH ([7]; non-selective α-1 blockers)
COc1cc2[nH]c(=O)n(CCCCN3C[C@@H]4COc5cccc(OC)c5[C@H]4C3)c(=O)c2cc1OC (racemic) [Example 82, 3-[4-((±)-trans-9-Methoxy-1,2,3,3a,4,9b-hexahydro-[1]-benzopyrano[3,4-c]pyrrol-2-yl)butyl]-6,7-dimethoxy-quinazoline-2,4(1H,3H)-dione dihydrochloride]	0.577 nM	0.361 nM	4.9 nM	1.58 nM						
COc1cccc2c1[C@@H]1CCN(CCCn3c(=O)[nH]c4c(sc5ncccc54)c3=O)C[C@H]1CO2 (relative stereo) [Example 84, 3-[3-(±)-trans-10-Methoxy-1,3,3,4a,5,10b-hexahydro-2H-[1]-benzopyrano[3,4-c]pyrido-3-yl)propyl]-pyrido[3',2':4,5]thieno[3,2-d]pyrimidine-2,4(1H,3H)-dione hydrochloride]	0.479 nM	0.617 nM	4.92 nM	1.12 nM						
COc1cc2[nH]c(=O)n(CCCCN3CC[C@H]4c5c(OC)cccc5OC[C@@H]4C3)c(=O)c2cc1OC (relative stereo) [Example 86, 3-[4-((±)-trans-10-Methoxy-1,3,4,4a,5,10b-hexahydro-2H-[1]-benzopyrano[3,4-c]pyrido-3-yl)butyl]-6,7-dimethoxy-quinazoline-2,4(1H,3H)-dione hydrochloride]	0.54 nM	0.202 nM	1.71 nM	0.398 nM						
COc1cccc2c1[C@@H]1CCN(CCCn3c(=O)[nH]c4c(sc5ccccc54)c3=O)C[C@H]1CO2 (relative stereo) [Example 89, 3-[3-((±)-trans-10-Methoxy-1,3,4,4a,5,10b-hexahydro-2H-[1]-benzopyrano[3,4-c]pyrido-3-yl)propyl]-[1]-benzthieno[3,2-d]pyrimidine-2,4(1H,3H)-dione hydrochloride]	0.133 nM	0.038 nM	0.111 nM	0.061 nM						
COc1cccc2c1[C@@H]1CCN(CCn3c(=O)[nH]c4c(sc5ccccc54)c3=O)C[C@H]1CO2 (relative stereo) [Example 90, 3-[2-((±)-trans-10-Methoxy-1,3,4,4a,5,10b-hexahydro-2H-[1]-benzopyrano[3,4-c]pyrido-3-yl)ethyl]-[1]-benzthieno[3,2-d]pyrimidine-2,4(1H,3H)-dione hydrochloride]	0.323 nM	0.135 nM	2.29 nM	0.439 nM						
COc1cccc2c1[C@@H]1CN(CCCCn3c(=O)[nH]c4c(sc5ccncc54)c3=O)C[C@@H]1CO2 [Example 28, 3-[4-((3aR,9bR)-cis-9-Methoxy-1,2,3,3a,4,9b-hexahydro-[1]-benzopyrano[3,4-c]pyrrol-2-yl)butyl]-pyrido[3',3':4,5]thieno[3,2-d]pyrimidine-2,4(1H,3H)-dione hydrochloride]					0.195 nM	9.39				
COc1ccc2sc3c(=O)n(CCCCN4C[C@@H]5COc6cccc(OC)c6[C@@H]5C4)c(=O)[nH]c3c2n1 [Example 30, 3-[4-((3aR,9bR)-cis-9-Methoxy-1,2,3,3a,4,9b-hexahydro-[1]-benzopyrano[3,4-c]pyrrol-2-yl)butyl]-8-methoxy-pyrido[2',3':4,5]thieno[3,2-d]pyrimidine-2,4(1H,3H)-dione hydrochloride]					0.468 nM	9.6				
COc1cc2nc(N3CCN(C(=O)C4CCCO4)CC3)nc(N)c2cc1OC (stereo not shown) [Terazosin, terazosin]							8.65	hypotension, dizziness, and muscle fatigue	significant improvements in urinary flow rates and subjective symptom scores	Clinical efficacy
